The values below come from patent US20260209200A1, “SALTS OF A DIHYDROOROTATE DEHYDROGENASE (DHOD) INHIBITOR” (priority 2022, published 2026).

Data set [1] is described as follows: in vivo. Particulars: dog. The procedure:
(§1) Suspensions were stirred continuously prior to dose.
A total of 6 male beagle dogs were used (n=3). 6 male dogs assigned to the study were divided into 2 periods with 6 dogs per period and two dosing cycles separated by a 7-day washout period. The diet was provided ad libitum throughout the in-life portion of the study, except for the fasting prior to dosing through 4 hours post dose. Drinking water was available daily ad libitum to all animals. Formulated PP-001 salts were administered to male beagle dogs by oral administration at 4 mg/kg with dosed volume at 2 mL/kg.
Plasma samples were collected via the jugular vein cannulation into EDTA-K3 tubes at 0.25, 0.5, 1, 2, 4, 8, and 24 hours post-dose administration. For analytical batch of single oral administration, plasma concentrations of salts of PP-001 were determined using LC-MS/MS with a lower limit of quantitation of 10 ng/mL.
(§2) The pharmacokinetic parameters of PP-001 salts were determined by non-compartmental analysis using WinNonlin Version 8.0 (Pharsight, Mountain View, CA). The area under the curve from the time of dosing to the last measurable concentration, AUC0-t, was calculated by the linear trapezoidal rule. The area under the concentration-time curve extrapolated to infinity, AUCinf, was calculated using a regression of the natural logarithm of the concentration values versus sampling time of the terminal slope (Lambda Z, k). This value is also used to calculate half-life (T1/2) as follows:
(§3) The bioavailability was calculated as follows:
(§4) [formula] • wherein PO is an oral administration and IV is an intravenous injection.

The nature of data set [2]: Kinetic solubility of PP-001 salts in FaSSIF (HPLC). In kind it is physicochemical. As to the method: Approximately 8 mg (calculated as freebase) of each salt was weighed out into each glass vial and then 4 ml of FaSSIF was added (target concentration was 2 mg/mL). The sample was kept stirring on a magnetic stirrer at a speed of I 00 RPM under 25° C. Then at the time points of initial, 0.5 hr, 1 hr, 2 hrs and 24 hrs, 0.5 mL of sample solution was transferred into 1.5 mL centrifugation tube and centrifuged at 12,000 RPM for 10 min. The supernatant was diluted by 50% ACN suitable and analyzed by HPLC.
An HPLC method of testing solubility was performed as follows in Table A: […]

A short description of data set [3]: in vivo. The settings on record: rat, in vivo, po; for AUC0-∞ / AUCExtr / AUCinf/D / AUClast / Cmax / F, bioavailability (BA) in rats / MRT0-∞ / Tmax / T1/2: 4 mg/kg; for T1/2: pH 6.8. As to the method: as §1
A total of 27 male SD rats were used (n=3). 27 male SD rats assigned to the study were divided into 9 groups and a single type of formulated PP-001 salt was orally administered to each group of rats at dose level of 4 mg/kg (2 mL/kg dose volume). The diet was provided ad libitum throughout the in-life portion of the study, except for the fasting prior to dosing through 4 hours post dose. Drinking water was available daily ad libitum to all animals.
Plasma samples were collected via the jugular vein cannulation into EDTA-K3 tubes at 0.25, 0.5, 1, 2, 4, 8, and 24 hours post-dose administration. For analytical batch of single oral administration, plasma concentrations of salts of PP-001 were determined using LC-MS/MS with a lower limit of quantitation of 1 ng/mL.
as §2, §3, §4

Where [4] appears, read: 4 mL FaSSIF, 25° C., target 2 mg/mL.

Some results are limits rather than exact numbers.

The Cmax is the highest concentration seen after dosing. What is called Tmax is the time at which the peak concentration occurs. For orientation: Solubility means the dissolved amount per volume that the medium holds. In the case of `[Ca]` [Calcium], the “Increase in oral BA vs free acid in dogs” value in the data set “in vivo [1]” amounted to 3.0. Also, the “Increase in bioavailability in dogs” value in the data set “in vivo [1]” (po) is over 3 fold. For the same compound, in the data set “in vivo [1]” (po, 4 mg/kg), the “AUC0-∞” value turned out to be 133409 ng·h/mL, the AUCExtr stood at 1.16%, the AUCinf/D amounted to 33352 kg·ng·h/mL/mg and the AUClast was determined as 131819 ng·h/mL. For the same compound, in “in vivo [1]” (po, 4 mg/kg), the Cmax is recorded as 22467 ng/mL; the “F, bioavailability (BA) in dogs” value worked out at 68.1%; the “MRT0-∞” value amounted to 4.38 h; the T1/2 is 3.76 h. Moreover, in “in vivo [1]” (po, 4 mg/kg), the Tmax was found to be 1.67 h. Moreover, in data set [2] (setting [4]), the “Appearance after stirring for 24 hours” value was “suspension”; the “Final pH” value came to 6.51; the “Solubility at different time points, 0.5 h” value amounted to 750 µg/mL; the “Solubility at different time points, 1 h” value worked out at 740 µg/mL. In addition, in data set [2] (setting [4]), the “Solubility at different time points, 2 h” value is 710 µg/mL and the “Solubility at different time points, Initial” value amounted to 340 µg/mL. For the same compound, the “Solubility at different time points, 24 h” value in data set [2] (4 mL FaSSIF, 25° C., target 2 mg/mL, listed as Ca) was determined as 700 µg/mL. Further, in data set [2] (4 mL FaSSIF, 25° C., target 2 mg/mL, listed as Ca cation), the “Solubility at different time points, 24 h” value was 700 µg/mL. Besides, the “Solubility compared to PP-001 free acid” value in data set [2] (FaSSIF, comparison from Table 6) was “reduced solubility compared to PP-001 free acid”. In “in vivo [3]”, the “Increase in oral BA vs free acid in rats” value is reported as 2.0, the “AUC0-∞” value amounted to 27157 ng·h/mL, the AUCExtr is reported as 1.03% and the AUCinf/D came to 6789 kg·ng·h/mL/mg. Further, in the data set “in vivo [3]”, the AUClast was found to be 26827 ng·h/mL; the Cmax is listed as 3280 ng/mL; the “F, bioavailability (BA) in rats” value came to 15.6%; the “MRT0-∞” value came to 5.55 h. Besides, in “in vivo [3]”, the Tmax is 4.00 h and the T1/2 worked out at 3.40 h.
Regarding `[Mg]` [Magnesium], in data set [2] (setting [4]), the “Appearance after stirring for 24 hours” value is “suspension”; the “Solubility at different time points, 0.5 h” value worked out at 1520 µg/mL; the “Solubility at different time points, 1 h” value was determined as 1510 µg/mL; the “Solubility at different time points, 2 h” value amounted to 1440 µg/mL. The “Solubility at different time points, Initial” value in data set [2] (setting [4]) came to 330 µg/mL. Further, the “Solubility at different time points, 24 h” value in data set [2] (4 mL FaSSIF, 25° C., target 2 mg/mL, listed as Mg) was found to be 1010 µg/mL. In addition, the “Solubility at different time points, 24 h” value in data set [2] (4 mL FaSSIF, 25° C., target 2 mg/mL, listed as Mg cation) was found to be 1010 µg/mL. In the data set “in vivo [3]”, the “Increase in oral BA vs free acid in rats” value amounted to 1.7, the “AUC0-∞” value was 23029 ng·h/mL, the AUCExtr amounted to 0.510% and the AUCinf/D was found to be 5757 kg·ng·h/mL/mg. Moreover, in “in vivo [3]”, the AUClast was determined as 22909 ng·h/mL; the maximum concentration (Cmax) is on record as 3163 ng/mL; the “F, bioavailability (BA) in rats” value worked out at 13.2%; the “MRT0-∞” value stood at 4.87 h. Also, in the data set “in vivo [3]”, the Tmax worked out at 3.33 h and the T1/2 worked out at 3.01 h.
As for Zinc, in the data set “in vivo [3]”, the “Increase in oral BA vs free acid in rats” value is 1.3, the “AUC0-∞” value worked out at 17122 ng·h/mL, the AUCExtr amounted to 0.471% and the AUCinf/D stood at 4281 kg·ng·h/mL/mg. In “in vivo [3]”, the AUClast amounted to 17033 ng·h/mL; the Cmax came out at 2490 ng/mL; the “F, bioavailability (BA) in rats” value amounted to 9.82%; the “MRT0-∞” value is 5.33 h. Also, in “in vivo [3]”, the Tmax is 4.00 h and the T1/2 was 2.89 h.
